Reference: ChEMBL document CHEMBL1157234, “Isoflavonoids with antiestrogenic activity from Millettia pachycarpa” (J Nat Prod, 2006)

Each compound was assayed against T1, Estrogen receptor (Homo sapiens, UniProt P03372) (assay: Antiestrogenic activity at estrogen receptor alpha expressed in yeast cells assessed as inhibition of 17-beta-estradiol-induced beta-galactosidase activity by two hybrid assay).
T1 sequence (P03372 whole entry): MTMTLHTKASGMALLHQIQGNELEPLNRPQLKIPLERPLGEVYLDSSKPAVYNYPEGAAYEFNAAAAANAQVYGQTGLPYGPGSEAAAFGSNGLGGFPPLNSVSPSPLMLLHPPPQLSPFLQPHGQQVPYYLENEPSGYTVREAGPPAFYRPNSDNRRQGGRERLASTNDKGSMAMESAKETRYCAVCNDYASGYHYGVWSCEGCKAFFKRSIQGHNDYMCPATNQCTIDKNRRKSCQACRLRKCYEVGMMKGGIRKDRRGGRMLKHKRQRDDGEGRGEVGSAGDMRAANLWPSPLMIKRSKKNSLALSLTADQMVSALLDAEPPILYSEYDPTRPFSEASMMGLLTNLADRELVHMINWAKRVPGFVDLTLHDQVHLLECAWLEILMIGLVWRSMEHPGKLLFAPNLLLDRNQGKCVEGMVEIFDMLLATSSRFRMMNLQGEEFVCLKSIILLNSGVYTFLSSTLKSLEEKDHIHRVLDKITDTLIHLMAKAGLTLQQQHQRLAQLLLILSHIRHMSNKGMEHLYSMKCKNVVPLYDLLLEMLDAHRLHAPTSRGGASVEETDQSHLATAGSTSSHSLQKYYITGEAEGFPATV
Format: cell-based

How did the IC50 turn out when `C=C(C)C(O)Cc1c(O)c(CC=C(C)C)c(O)c2c(=O)c(-c3ccc(O)c(O)c3)coc12` (racemic) was run?
Its IC50 is 18 µM.

How did the IC50 turn out when `CC(C)=CCc1c2c(c3occ(-c4ccc(O)c(O)c4)c(=O)c3c1O)CC(C(C)(C)O)O2` (racemic) [(+/-)-FUROWANIN B] was run?
The IC50 was 13 µM.

For `C=C(C)C(O)Cc1c(O)c(CC=C(C)C)c2occ(-c3ccc(O)c(O)c3)c(=O)c2c1O` (racemic) [MILLEWANIN G], which IC50 is on record?
The IC50 was 29 µM.
